Laboratory results from US12344600B2, “c-Myc mRNA translation modulators and uses thereof in the treatment of cancer” (Anima Biotech Inc., priority 2022, dated 2025).

Test system: c-Myc
Assay: c-Myc immunofluorescence assay
Format: cell-based, human
Settings: A549 cells, 24 hours, anti-c-Myc immunofluorescence
In short: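 A549 NSCLC cells grown 48 h, then treated 24 h with increasing compound concentrations; fixed in 4% paraformaldehyde, stained with anti-c-Myc antibody plus fluorescent secondary and DAPI. Per-cell c-Myc fluorescence quantified by high-content imaging at 20×; dose-response fitted by logistic regression to give EC50.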

Row | Structure (SMILES) | Myc Efficacy (−LogEC50)
1 | COc1ccc(-c2noc(N3CCC(C(=O)NC[C@@H]4CCN(C[C@H]5CCCN(C)C5)C4)CC3)n2)cc1 [Compound 466, 1-(3-(4-methoxyphenyl)-1,2,4-oxadiazol-5-yl)-N-(((S)-1-(((S)-1-methylpiperidin-3-yl)methyl)pyrrolidin-3-yl)methyl)piperidine-4-carboxamide] | + (+ >3 and <5)
2 | COc1ccc(-c2noc(CCC(=O)NC[C@@H]3CCN(Cc4ccc(C)cc4)C3)n2)cc1 [Compound 150, (S)-3-(3-(4-methoxyphenyl)-1,2,4-oxadiazol-5-yl)-N-((1-(4-methylbenzyl)pyrrolidin-3-yl)methyl)propanamide] | ++ (++ ≥5 and <6)
3 | COc1ccc(-c2noc(N3CCC(C(=O)NCC4CCN(CC5CCOC5)C4)CC3)n2)cc1 (centres unmarked) [Compound 347, 1-(3-(4-methoxyphenyl)-1,2,4-oxadiazol-5-yl)-N-((1-((tetrahydrofuran-3-yl)methyl)pyrrolidin-3-yl)methyl)piperidine-4-carboxamide] | + (+ >3 and <5)
4 | COc1ccc(-c2noc(CCC(=O)NC[C@H]3CCN(Cc4ccc(C)cc4)C3)n2)cc1 [Compound 149, (R)-3-(3-(4-methoxyphenyl)-1,2,4-oxadiazol-5-yl)-N-((1-(4-methylbenzyl)pyrrolidin-3-yl)methyl)propanamide] | ++ (++ ≥5 and <6)
5 | COc1ccc(-c2noc(N3CCN(C(=O)NCC4CCN(CC5CC5)C4)CC3)n2)cc1 (centres unmarked) [Compound 221, N-((1-(cyclopropylmethyl)pyrrolidin-3-yl)methyl)-4-(3-(4-methoxyphenyl)-1,2,4-oxadiazol-5-yl)piperazine-1-carboxamide] | + (+ >3 and <5)
6 | COc1ccc(-c2noc(N3CCC(C(=O)N[C@@H](CCO)C(C)C)CC3)n2)cc1 [Compound 315, (S)-N-(1-hydroxy-4-methylpentan-3-yl)-1-(3-(4-methoxyphenyl)-1,2,4-oxadiazol-5-yl)piperidine-4-carboxamide] | + (+ >3 and <5)
7 | COc1ccc(-c2noc(N3CCC(C(=O)NCC4CCN(CC(C)(C)C)C4)CC3)n2)cc1 (centres unmarked) [Compound 327, 1-(3-(4-methoxyphenyl)-1,2,4-oxadiazol-5-yl)-N-((1-neopentylpyrrolidin-3-yl)methyl)piperidine-4-carboxamide] | + (+ >3 and <5)
8 | CN1CCC[C@H](CN2CC[C@H](CNC(=O)C3CCN(c4nc(-c5ccc(Cl)cc5)no4)CC3)C2)C1 (single isomer, unassigned) [Compound 471] | ++ (++ ≥5 and <6)
9 | COc1ccc(-c2noc(N3CCC(C(=O)NCC4CCN(Cc5ccc(C)cc5)C4)CC3)n2)c(Cl)c1 (centres unmarked) [Compound 231, 1-(3-(2-chloro-4-methoxyphenyl)-1,2,4-oxadiazol-5-yl)-N-((1-(4-methylbenzyl)pyrrolidin-3-yl)methyl)piperidine-4-carboxamide] | ++ (++ ≥5 and <6)
10 | CCCCN(CC)CCNC(=O)C1CCN(c2nc(-c3ccc(OC)cc3)no2)CC1 [Compound 119, N-(2-(butyl(ethyl)amino)ethyl)-1-(3-(4-methoxyphenyl)-1,2,4-oxadiazol-5-yl)piperidine-4-carboxamide] | + (+ >3 and <5)
11 | COc1ccccc1-c1noc(N2CCC(C(=O)NCc3cccnc3)CC2)n1 [Compound 179, 1-(3-(2-methoxyphenyl)-1,2,4-oxadiazol-5-yl)-N-(pyridin-3-ylmethyl)piperidine-4-carboxamide] | + (+ >3 and <5)
12 | Cc1ccc(CN2CC(CNC(=O)N3CCN(c4nc(-c5ccc(C#N)cc5)no4)CC3)CC2=O)cc1 (centres unmarked) [Compound 268, 4-(3-(4-cyanophenyl)-1,2,4-oxadiazol-5-yl)-N-((1-(4-methylbenzyl)-5-oxopyrrolidin-3-yl)methyl)piperazine-1-carboxamide] | ++ (++ ≥5 and <6)
13 | COc1ccc(-c2noc(N3CCC(C(=O)NCC4CCN(C5CCOC5)C4)CC3)n2)cc1 (centres unmarked) [Compound 370, 1-(3-(4-methoxyphenyl)-1,2,4-oxadiazol-5-yl)-N-((1-(tetrahydrofuran-3-yl)pyrrolidin-3-yl)methyl)piperidine-4-carboxamide] | + (+ >3 and <5)
14 | COc1ccc(-c2noc(N3CCC(C(=O)NCC4CCN(Cc5cnc(C)s5)C4)CC3)n2)cc1 (centres unmarked) [Compound 388, 1-(3-(4-methoxyphenyl)-1,2,4-oxadiazol-5-yl)-N-((1-((2-methylthiazol-5-yl)methyl)pyrrolidin-3-yl)methyl)piperidine-4-carboxamide] | ++ (++ ≥5 and <6)
15 | COc1ccc(-c2noc(N3CCC(C(=O)NC[C@H]4CCN(Cc5ccc(C)cc5)C4)CC3)n2)cc1 [Compound 106, (R)-1-(3-(4-methoxyphenyl)-1,2,4-oxadiazol-5-yl)-N-((1-(4-methylbenzyl)pyrrolidin-3-yl)methyl)piperidine-4-carboxamide] | ++ (++ ≥5 and <6)
16 | COc1ccc(-c2noc(N3CCC(C(=O)N4CCC(C)CC4)CC3)n2)cc1 [Compound 110, (1-(3-(4-methoxyphenyl)-1,2,4-oxadiazol-5-yl)piperidin-4-yl)(4-methylpiperidin-1-yl)methanone] | + (+ >3 and <5)
17 | COc1ccc(-c2noc(N3CCC(C(=O)NCCN(C)C)CC3)n2)cc1 [Compound 111, N-(2-(dimethylamino)ethyl)-1-(3-(4-methoxyphenyl)-1,2,4-oxadiazol-5-yl)piperidine-4-carboxamide] | + (+ >3 and <5)
18 | COc1ccc(-c2noc(N3CCC(C(=O)NCCCN4CCC[C@@H](C)C4)CC3)n2)cc1 [Compound 142, (R)-1-(3-(4-methoxyphenyl)-1,2,4-oxadiazol-5-yl)-N-(3-(3-methylpiperidin-1-yl)propyl)piperidine-4-carboxamide] | + (+ >3 and <5)
19 | COc1ccc(-c2noc(N3CCC(C(=O)N4CCN(c5ccccc5)CC4)CC3)n2)cc1 [Compound 205, (1-(3-(4-methoxyphenyl)-1,2,4-oxadiazol-5-yl)piperidin-4-yl)(4-phenylpiperazin-1-yl)methanone] | + (+ >3 and <5)
20 | O=C(NCCCN1CCC(Cc2ccccn2)CC1)N1CCN(c2nc(-c3ccc(C(F)(F)F)cc3)no2)CC1 [Compound 459, N-(3-(4-(pyridin-2-ylmethyl)piperidin-1-yl)propyl)-4-(3-(4-(trifluoromethyl)phenyl)-1,2,4-oxadiazol-5-yl)piperazine-1-carboxamide] | +++ (+++ ≥6)
21 | COc1ccc(-c2noc(N3CCC(C(=O)NCc4nc5ccccc5[nH]4)CC3)n2)cc1 [Compound 419, N-((1H-benzo[d]imidazol-2-yl)methyl)-1-(3-(4-methoxyphenyl)-1,2,4-oxadiazol-5-yl)piperidine-4-carboxamide] | ++ (++ ≥5 and <6)
22 | COc1ccc(-c2noc(N3CCC(C(=O)N4CCC(OC)CC4)CC3)n2)cc1 [Compound 134, (1-(3-(4-methoxyphenyl)-1,2,4-oxadiazol-5-yl)piperidin-4-yl)(4-methoxypiperidin-1-yl)methanone] | + (+ >3 and <5)
23 | O=C(NCCCN1CCC(Cc2ccccn2)CC1)N1CCN(c2nc(-c3ccc(OC(F)(F)F)cc3)no2)CC1 [Compound 436, N-(3-(4-(pyridin-2-ylmethyl)piperidin-1-yl)propyl)-4-(3-(4-(trifluoromethoxy)phenyl)-1,2,4-oxadiazol-5-yl)piperazine-1-carboxamide] | +++ (+++ ≥6)
